What all share (type): cell-based
Holding throughout (conditions): receptor agonist at ~EC80

One experiment addresses T1, PPAR beta/delta (Homo sapiens, UniProt Q03181).
T1 construct: host or cells: engineered reporter cells of the kit (analogous to the human PPARα kit)
T1 sequence (Q03181 1-441): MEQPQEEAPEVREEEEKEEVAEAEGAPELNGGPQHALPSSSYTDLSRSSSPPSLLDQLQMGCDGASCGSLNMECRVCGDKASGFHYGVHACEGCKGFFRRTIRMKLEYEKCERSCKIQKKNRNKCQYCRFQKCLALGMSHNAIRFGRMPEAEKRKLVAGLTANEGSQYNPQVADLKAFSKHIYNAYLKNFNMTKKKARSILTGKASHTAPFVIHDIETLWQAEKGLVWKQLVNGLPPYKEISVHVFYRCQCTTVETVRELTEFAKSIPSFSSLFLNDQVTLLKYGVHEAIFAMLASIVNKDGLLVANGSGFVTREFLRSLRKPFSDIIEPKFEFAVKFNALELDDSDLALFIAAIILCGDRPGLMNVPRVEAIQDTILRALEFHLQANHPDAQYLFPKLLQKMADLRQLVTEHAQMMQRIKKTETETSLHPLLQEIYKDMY
Description: Target selectivity counterscreen, PPAR β/δ reporter assay. The protocol: (§1) Target Selectivity Assays
(§2) To determine species selectivity, a Mouse PPARα Reporter Assay System was used (Indigo Biosciences, Cat. #M00111). Activity of test compounds to antagonize or agonize other isoforms of human PPAR, for example β/δ and γ, were assessed using the corresponding kits from Indigo Biosciences (Cat. #IB00121 and #IB00101, respectively). In addition to PPAR activity, compounds were also screened for activity against other nuclear hormone receptors including Estrogen Receptor β, Glucocorticoid Receptor and Thyroid Receptor β using commercially available kits (Indigo Biosciences, Cat. #IB00411, IB00201 and IB01101, respectively). Each assay system from Indigo Biosciences uses technology analogous to the human PPARα kit, with the variance being that the cells used for each assay were engineered to over-express the receptor of interest. In addition, the appropriate receptor agonist (included with each kit) was used at ˜EC80 for assays in which antagonist potency was being assessed.
(In general: Counterscreens check selectivity or assay interference.)

The target of the next experiment is T2, Glucocorticoid Receptor (Homo sapiens, UniProt P04150).
T2 construct: host or cells: engineered reporter cells of the kit
T2 sequence (P04150 1-777): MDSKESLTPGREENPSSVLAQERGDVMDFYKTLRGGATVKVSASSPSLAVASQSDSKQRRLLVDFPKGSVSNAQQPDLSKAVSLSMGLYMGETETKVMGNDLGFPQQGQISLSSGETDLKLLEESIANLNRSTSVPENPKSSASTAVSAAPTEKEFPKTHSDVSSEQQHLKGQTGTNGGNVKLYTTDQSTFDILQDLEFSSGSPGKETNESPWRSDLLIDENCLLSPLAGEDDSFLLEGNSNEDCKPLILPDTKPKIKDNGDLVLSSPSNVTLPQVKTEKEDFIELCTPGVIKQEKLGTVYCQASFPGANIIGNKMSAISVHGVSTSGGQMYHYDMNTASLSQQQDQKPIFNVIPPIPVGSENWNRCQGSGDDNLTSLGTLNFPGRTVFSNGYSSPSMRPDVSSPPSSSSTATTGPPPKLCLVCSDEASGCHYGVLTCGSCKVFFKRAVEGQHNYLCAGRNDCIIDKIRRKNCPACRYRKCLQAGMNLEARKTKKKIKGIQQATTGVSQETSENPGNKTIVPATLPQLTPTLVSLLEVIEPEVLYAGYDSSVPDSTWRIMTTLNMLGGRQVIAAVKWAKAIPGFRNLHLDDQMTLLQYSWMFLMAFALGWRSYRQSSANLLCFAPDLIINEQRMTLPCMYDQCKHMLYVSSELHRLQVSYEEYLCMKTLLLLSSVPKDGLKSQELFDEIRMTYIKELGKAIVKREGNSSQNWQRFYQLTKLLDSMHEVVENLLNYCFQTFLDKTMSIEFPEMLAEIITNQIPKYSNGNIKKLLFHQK
The experiment can be described thus: Target selectivity counterscreen, Glucocorticoid Receptor reporter assay. The method, then: as §1, §2

For another experiment, the target named is T3, Estrogen Receptor β (Homo sapiens, UniProt Q92731).
T3 construct: host or cells: engineered reporter cells of the kit
T3 sequence (Q92731 whole entry): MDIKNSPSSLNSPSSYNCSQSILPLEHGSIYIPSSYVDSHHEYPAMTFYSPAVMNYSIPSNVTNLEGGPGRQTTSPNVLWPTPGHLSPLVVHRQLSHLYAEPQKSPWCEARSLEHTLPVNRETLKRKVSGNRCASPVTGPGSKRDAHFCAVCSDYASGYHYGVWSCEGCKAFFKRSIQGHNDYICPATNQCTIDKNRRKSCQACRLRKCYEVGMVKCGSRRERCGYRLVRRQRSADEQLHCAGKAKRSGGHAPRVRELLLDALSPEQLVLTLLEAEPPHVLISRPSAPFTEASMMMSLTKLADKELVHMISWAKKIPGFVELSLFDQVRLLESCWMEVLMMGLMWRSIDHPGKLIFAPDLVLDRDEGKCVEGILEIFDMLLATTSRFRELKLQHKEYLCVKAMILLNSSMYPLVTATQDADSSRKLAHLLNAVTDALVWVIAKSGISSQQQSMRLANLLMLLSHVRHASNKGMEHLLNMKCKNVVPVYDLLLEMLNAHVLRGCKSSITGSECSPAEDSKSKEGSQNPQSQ
Description: Target selectivity counterscreen, Estrogen Receptor β reporter assay. The method, then:
as §1, §2

With `CCOc1ccc(-c2cccc(CCCc3nn(Cc4ccc(C(C)(C)C)cc4)c(=O)n3CC)c2)cc1CC(=O)O` [Example 6, 2-(3′-(3-(1-(4-(tert-Butyl)benzyl)-4-ethyl-5-oxo-4,5-dihydro-1H-1,2,4-triazol-3-yl)propyl)-4-ethoxy-[1,1′-biphenyl]-3-yl)acetic acid], the IC50 on PPAR beta/delta came to 13.3 µM; at Glucocorticoid Receptor, 18.2 µM; on Estrogen Receptor β, 19.4 µM.

As usually defined, the IC50 is the concentration that gives 50% inhibition. Low values mean inhibition by little substance, high ones a need for much substance.

(Values after patent US9676754B2, “Triazolone compounds and uses thereof” (Inception 2, Inc., priority 2012, dated 2017).)
